Patent US20180133327A1, “Cell Penetrating Peptides and Complexes Comprising the Same” (Amal Therapeutics SA, priority 2015, published 2018)

Tests used:
[1] = test system: OVA257-264-specific CD8+ T cells from OT-1 T cell receptor (TCR) transgenic mice; test: Identification of the best ZEBRA CPP truncations in vitro (proliferation assay) and in vivo (CD8 T cell immune response after vaccination); type: cell-based, mouse (C57BL/6; conditions: each CPP truncation conjugated to OVACD8 epitope; in vitro BMDCs loaded with 0.3 μM, 4 days with OT-1 cells; in vivo 10 nmol s.c. wk0 and wk2 with anti-CD40 and Hiltonol
Text: The functionality of the different ZEBRA CPP truncations was validated both in vitro and in vivo, based on the capacity to stimulate MHC class-I restricted CD8 T cells specific for a model antigen OVA (OVA257-264-specific CD8^+ T cells from OT-1 T cell receptor (TCR) transgenic mice). This capacity should reflect transport of the OVA antigen cargo into APCs. The functional read-out of these experiments was proliferation of OVA-specific CD8 T cells in vitro (FIG. 2A), and for the in vivo studies, the induction of OVA-specific CD8 T cells in the blood of mice vaccinated with the different CPP-OVA conjugates together with adjuvant (FIG. 2B).
To assess the proliferation of OVA-specific CD8 T cells in vitro, bone marrow derived dendritic cells (BMDCs) were prepared from C57BL/6 mice as previously described (Santiago-Raber (2003), J. Exp. Med. 197, 777-788), and used at day 9-10 of culture.
BMDCs were loaded with 0.3 μM of each Zebra CPP truncation (Z13 to Z20) conjugated to OVACD8 epitope as described above for 4 hours at 37° C., washed 3 times, then matured overnight at 37° C. with 100 ng/ml LPS (from Salmonella abortus, equi S-form, Enzo Life Sciences). Antigen-loaded mature BMDC were then mixed at a ratio of 1:10 with OT-1 T cell receptor (TCR) transgenic mice splenocytes that had been stained with 10 μM 5-(and 6) Carboxyfluorescein diacetate succinimidyl ester (CFSE) (Life Technologies). After 4 days co-incubation of spleen cells and BMDCs, antigen-specific proliferation was assessed by flow cytometry, measuring CFSE dilution on CD8 T cells and live-gated cells. OT-1 mice express TCR specific for MHC class I restricted OVA257-264.
To assess the induction of OVA-specific CD8 T cells in vivo, C57/BL6 mice were assigned to nine different groups (Z12 to Z20, respectively). Each group of mice was vaccinated by subcutaneous injection of 10 nmol of one selected Zebra CPP truncation (one selected from Z12 to Z20) conjugated to OVACD8 epitope as described above with 100 μg of anti-CD40 at week0 and week2. Mice were also injected with 50 μg of Hiltonol i.m. (right hind leg). Mice were bled 1 wk after the 2nd vaccination in order to assess OVA257-264-specific CD8 T cells.

[2] = test system: BMDC, mo-DCs, EL-4 or K562 cells; test: In vitro transduction with fluorescein-conjugated ZEBRA CPP truncation constructs (FACS); type: cell-based, human and mouse; conditions: for kinetic of transduction (entry into cells): fluorescein-conjugated constructs (ZxxOVACD8FAM), 30 minutes, 2 h or 4 h, acidic wash, FACS
Experimental: Transduction was assessed in cells with high phagocytosis capacity (dendritic cells of human and mice origin) and in cells with poor phagocytosis capacity (T cells from human, K562, or mouse, EL4, origin). Cells were incubated for 30 minutes, 2 h or 4 h with the fluorescein-conjugated constructs (Z13OVACD8FAM, Z14OVACD8FAM, Z15OVACD8FAM or Z18OVACD8FAM) then subjected to a 30s wash with an acidic buffer to remove membrane bound peptide before FACS analysis.
In order to more directly assess the transduction capacities of the selected ZEBRA CPP truncations Z13, Z14, Z15 and Z18 fluorescein-conjugated constructs (Z13OVACD8FAM, Z14OVACD8FAM, Z15OVACD8FAM and Z18OVACD8FAM) were synthesized. To this end, 5-(and-6)-carboxyfluorescein (mixed isomers; e.g. ThermoFisher Scientific catalogue no. C194) was added to each of Z13OVACD8 (SEQ ID NO: 29), Z14OVACD8 (SEQ ID NO: 30), Z15OVACD8 (SEQ ID NO: 31) and Z18OVACD8 (SEQ ID NO: 34).
These fluorescein-conjugated constructs (Z13OVACD8FAM, Z14OVACD8FAM, Z15OVACD8FAM and Z18OVACD8FAM) were tested for their ability to transduce different human and mouse cell types, in particular (i) cells with high phagocytosis capacity, namely dendritic cells (DCs) of human […], and (ii) cells with poor phagocytosis capacity, namely T cells from human, K562, or mouse, EL4, origin). The EL-4 thymoma cell line was maintained in complete RPMI 1640 medium. The K562 cell line was maintained in complete Iscove's modified Dulbecco's medium. BMDC, mo-DCs, EL-4 or K562 cells were incubated for 4 h at 37° C. with the fluorescein-conjugated constructs as described above (Z13OVACD8FAM, Z14OVACD8FAM, Z15OVACD8FAM or Z18OVACD8FAM). For removal of membrane bound peptide prior to cell transduction, a 30s wash with an acidic buffer (0.2 M Glycine, 0.15 M NaCl, pH 3) was performed. Cells were then analyzed by flow cytometry (FACS).

[3] = test system: self antigen (CD8 epitope from gp100)-specific CD8 T cells; test: Self antigen-specific CD8 T cell response after vaccination (gp100CD8 restimulation, multimer staining); type: in vivo, mice; conditions: 10 nmol ZxxOVACD4gp100CD8 s.c. wk0, wk2, wk9, combined with MPLA or Hiltonol
Experimental: The constructs were tested in combination with Hiltonol (A) and MPLA (B). Briefly, Mice were vaccinated three times (wk0, wk2 and wk9) by s.c. injection (right flank) of 10 nmol of Z13OVACD4gp1 00CD8, Z14OVACD4gp1 00CD8, Z18OVACD4gp100CD8 and i.m. injection of […] of Hiltonol (right hind leg) or s.c. injection of 20 μg of MPLA. One week after the last vaccination, spleen cells were restimulated in vitro for 7 days with gp100CD8 peptide and stained as described in Example 6.
To extend the previous findings to self antigen-specific immune response, Z13, Z14 and Z18 conjugated to antigenic cargo containing a self antigen (CD8 epitope from gp100) and CD4 T cell epitope from OVA were synthesized.
Firstly, those constructs were tested with Hiltonol or MPLA adjuvant. To this end, mice were vaccinated three times (wk0, wk2 and wk9) by s.c. injection (right flank) of 10 nmol of Z13OVACD4gp100CD8, Z14OVACD4gp100CD8, Z18OVACD4gp100CD8 and i.m. injection of 50 μg of Hiltonol (right hind leg) or s.c. injection of 20 μg of MPLA. One week after the last vaccination, spleen cells were restimulated in vitro for 7 days with gp100CD8 peptide and stained as follow. Briefly, for surface staining, after FcR blocking, the following mAb were used: CD4 (RMA4-4), CD8 (53-6.7), CD11b (M1/70), CD19 (6D5), all from BD Biosciences. Dead cells were identified with LIVE/DEAD yellow fluorescent reactive dye (L34959) from Life Technologies and were excluded from analyses. MHC-peptide multimers were from Immudex (Copenhagen, Denmark). Multimer gating strategy used a dump gate (CD4, CD11b, CD19) and excluded dead cells.

Sequence | promoting cross-presentation (stimulation of OVA-specific CD8 T cells) [1] | kinetic of transduction (entry into cells) [2] | self antigen-specific CD8 T cell immune response [3] | transduction efficacy, all cell types ([2]; fluorescein-conjugated constructs, compared to other ZEBRA CPP truncations)
KRYKNRVASRKSRAKFK (CPP Z15) [ZEBRA CPP truncation] | best truncations for promoting cross-presentation | slower |  | 
KRYKNRVASRKSRAKFKQLLQHYREVAAAK [Z14] | best truncations for promoting cross-presentation | rapidly entering in the majority of the cells | high self antigen-specific CD8 immune response | 
KRYKNRVASRKSRAKFKQLLQHYREVAAAKSSENDRLRLLLK [Z13] | best truncations for promoting cross-presentation | rapidly entering in the majority of the cells | high self antigen-specific CD8 immune response | 
REVAAAKSSENDRLRLLLK [Z18] | best truncations for promoting cross-presentation | slower | did not elicit self antigen-specific CD8 T cell responses | lower transduction efficacy
